Reference: PubChem BioAssay AID2060893 (Molecular Pharmacology Branch, DTP, NCI, 2025)
pIC50: −log10 of the molar value.

Test system: K86415-001-R-J1-PDC complex spheroids, viability
Assay: Anticancer human tumor K86415-001-R-J1-PDC patient-derived lung adenocarcinoma cell line growth inhibition [RAS]
Conditions: for viability, T/C: stronger effect = lower value
Procedure, shortened: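 Multi-cell-type spheroids: tumor cells plus HUVEC endothelial cells and mesenchymal stem cells. RAS-pathway inhibitors were combined with targeted agents, each dosed in half-log steps down from clinical Cmax, or from 10 microM when Cmax was unknown.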
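Also: spheroids exposed to agents for seven days before readout.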

CC1(C)CCC(Nc2ncc(C(F)(F)F)c(-c3c[nH]c4c(P(C)(C)=O)c(C#N)ccc34)n2)CN1 (stereo unspecified) + C#Cc1c(F)ccc2cc(O)cc(-c3ncc4c(N5CC6CCC(C5)N6)nc(OCC56CCCN5CC(F)C6)nc4c3F)c12
pIC50 (curve of first compound, second compound 0.0316 µM): 6.52 | pIC50 (curve of first compound, second compound 0.1 µM): < 6.52 | pIC50 (curve of first compound, second compound 0.316 µM): 6.52 | pIC50 (curve of first compound, second compound 1 µM): < 6.52 | pIC50 (curve of first compound, second compound 3.16 µM): < 6.52 | pIC50 (curve of first compound, second compound 10 µM): > 9.02 | viability, T/C (second compound 0.0316 µM, first compound 0.000949 µM): 103% | viability, T/C (second compound 0.0316 µM, first compound 0.003 µM): 131% | viability, T/C (second compound 0.0316 µM, first compound 0.00949 µM): 75.3% | viability, T/C (second compound 0.0316 µM, first compound 0.03 µM): 59.8% | viability, T/C (second compound 0.0316 µM, first compound 0.0949 µM): 56.6% | viability, T/C (second compound 0.0316 µM, first compound 0.3 µM): 55.5% | viability, T/C (second compound 0.1 µM, first compound 0.000949 µM): 103% | viability, T/C (second compound 0.1 µM, first compound 0.003 µM): 118% | viability, T/C (second compound 0.1 µM, first compound 0.00949 µM): 77.3% | viability, T/C (second compound 0.1 µM, first compound 0.03 µM): 62% | viability, T/C (second compound 0.1 µM, first compound 0.0949 µM): 57.4% | viability, T/C (second compound 0.1 µM, first compound 0.3 µM): 61% | viability, T/C (second compound 0.316 µM, first compound 0.000949 µM): 101% | viability, T/C (second compound 0.316 µM, first compound 0.003 µM): 119% | viability, T/C (second compound 0.316 µM, first compound 0.00949 µM): 78.3% | viability, T/C (second compound 0.316 µM, first compound 0.03 µM): 60.4% | viability, T/C (second compound 0.316 µM, first compound 0.0949 µM): 62.8% | viability, T/C (second compound 0.316 µM, first compound 0.3 µM): 61.9% | viability, T/C (second compound 1 µM, first compound 0.000949 µM): 78.5% | viability, T/C (second compound 1 µM, first compound 0.003 µM): 103% | viability, T/C (second compound 1 µM, first compound 0.00949 µM): 76.5% | viability, T/C (second compound 1 µM, first compound 0.03 µM): 57.4% | viability, T/C (second compound 1 µM, first compound 0.0949 µM): 60.6% | viability, T/C (second compound 1 µM, first compound 0.3 µM): 65.5% | viability, T/C (second compound 3.16 µM, first compound 0.000949 µM): 39.1% | viability, T/C (second compound 3.16 µM, first compound 0.003 µM): 64.3% | viability, T/C (second compound 3.16 µM, first compound 0.00949 µM): 60.5% | viability, T/C (second compound 3.16 µM, first compound 0.03 µM): 49.5% | viability, T/C (second compound 3.16 µM, first compound 0.0949 µM): 47.9% | viability, T/C (second compound 3.16 µM, first compound 0.3 µM): 55.8% | viability, T/C (second compound 10 µM, first compound 0.000949 µM): 19% | viability, T/C (second compound 10 µM, first compound 0.003 µM): 22% | viability, T/C (second compound 10 µM, first compound 0.00949 µM): 26.7% | viability, T/C (second compound 10 µM, first compound 0.03 µM): 29.1% | viability, T/C (second compound 10 µM, first compound 0.0949 µM): 33.6% | viability, T/C (second compound 10 µM, first compound 0.3 µM): 34.3%

CC(=O)OC12COC1CC(O)C1(C)C(=O)C(O)C3=C(C)C(OC(=O)C(O)C(NC(=O)OC(C)(C)C)c4ccccc4)CC(O)(C(OC(=O)c4ccccc4)C21)C3(C)C (stereo unspecified)
viability, T/C (compound 0.0316 µM): 32.8% [middle of 4 runs] | viability, T/C (compound 0.1 µM): 30.1% [middle of 4 runs] | viability, T/C (compound 0.316 µM): 31% [middle of 4 runs] | viability, T/C (compound 1 µM): 34.2% [middle of 4 runs] | viability, T/C (compound 3.16 µM): 36.2% [middle of 4 runs] | viability, T/C (compound 10 µM): 32.1% [middle of 4 runs] | pIC50 (curve of compound): > 7.50

CC1(C)CCC(Nc2ncc(C(F)(F)F)c(-c3c[nH]c4c(P(C)(C)=O)c(C#N)ccc34)n2)CN1 (stereo unspecified) + CCn1c(-c2cc(N3CCN(C)CC3)cnc2C(C)OC)c2c3cc(ccc31)-c1csc(n1)CC(NC(=O)C1CC1C)C(=O)N1CCCC(N1)C(=O)OCC(C)(C)C2
pIC50 (curve of first compound, second compound 0.000949 µM): 8.92 | pIC50 (curve of first compound, second compound 0.003 µM): > 9.02 | pIC50 (curve of first compound, second compound 0.00949 µM): > 9.02 | pIC50 (curve of first compound, second compound 0.03 µM): > 9.02 | pIC50 (curve of first compound, second compound 0.0949 µM): > 9.02 | pIC50 (curve of first compound, second compound 0.3 µM): > 9.02 | viability, T/C (second compound 0.000949 µM, first compound 0.000949 µM): 57.1% | viability, T/C (second compound 0.000949 µM, first compound 0.003 µM): 45.9% | viability, T/C (second compound 0.000949 µM, first compound 0.00949 µM): 37.9% | viability, T/C (second compound 0.000949 µM, first compound 0.03 µM): 39.5% | viability, T/C (second compound 0.000949 µM, first compound 0.0949 µM): 42.2% | viability, T/C (second compound 0.000949 µM, first compound 0.3 µM): 39.5% | viability, T/C (second compound 0.003 µM, first compound 0.000949 µM): 24.9% | viability, T/C (second compound 0.003 µM, first compound 0.003 µM): 18.3% | viability, T/C (second compound 0.003 µM, first compound 0.00949 µM): 20.9% | viability, T/C (second compound 0.003 µM, first compound 0.03 µM): 20.8% | viability, T/C (second compound 0.003 µM, first compound 0.0949 µM): 24.6% | viability, T/C (second compound 0.003 µM, first compound 0.3 µM): 23.6% | viability, T/C (second compound 0.00949 µM, first compound 0.000949 µM): 10.8% | viability, T/C (second compound 0.00949 µM, first compound 0.003 µM): 10.4% | viability, T/C (second compound 0.00949 µM, first compound 0.00949 µM): 11.1% | viability, T/C (second compound 0.00949 µM, first compound 0.03 µM): 13.3% | viability, T/C (second compound 0.00949 µM, first compound 0.0949 µM): 12.4% | viability, T/C (second compound 0.00949 µM, first compound 0.3 µM): 14.3% | viability, T/C (second compound 0.03 µM, first compound 0.000949 µM): 6.32% | viability, T/C (second compound 0.03 µM, first compound 0.003 µM): 7.15% | viability, T/C (second compound 0.03 µM, first compound 0.00949 µM): 6.95% | viability, T/C (second compound 0.03 µM, first compound 0.03 µM): 7.05% | viability, T/C (second compound 0.03 µM, first compound 0.0949 µM): 6.99% | viability, T/C (second compound 0.03 µM, first compound 0.3 µM): 8.91% | viability, T/C (second compound 0.0949 µM, first compound 0.000949 µM): 5.16% | viability, T/C (second compound 0.0949 µM, first compound 0.003 µM): 5.23% | viability, T/C (second compound 0.0949 µM, first compound 0.00949 µM): 6.96% | viability, T/C (second compound 0.0949 µM, first compound 0.03 µM): 5.02% | viability, T/C (second compound 0.0949 µM, first compound 0.0949 µM): 6.21% | viability, T/C (second compound 0.0949 µM, first compound 0.3 µM): 7.98% | viability, T/C (second compound 0.3 µM, first compound 0.000949 µM): 3.6% | viability, T/C (second compound 0.3 µM, first compound 0.003 µM): 4.59% | viability, T/C (second compound 0.3 µM, first compound 0.00949 µM): 5.58% | viability, T/C (second compound 0.3 µM, first compound 0.03 µM): 6.23% | viability, T/C (second compound 0.3 µM, first compound 0.0949 µM): 5.28% | viability, T/C (second compound 0.3 µM, first compound 0.3 µM): 6.87%
